One series concerns macrophages RAW264.7. Kind of series: In vitro cytotoxicity assay (CCK-8). In kind it is cell-based. The settings on record: RAW264.7, 24 h exposure. How it is done:
(§1) The cytotoxicity of II-6s was evaluated by the Cell Counting Kit-8 (CCK-8; Dojindo, Kumamoto, Japan) assay as described by Park et al.. Human gingival epithelial cells (HGE), human oral keratinocytes (HOK) and macrophages RAW264.7 (RAW264.7) were provided by the State Key Laboratory of Oral Diseases, Sichuan University, China. HGE, HOK and RAW264.7 were grown in Dulbecco’s modified Eagle’s medium (DMEM; GibcoTM, Invitrogen, Carlsbad, CA, USA) supplemented with 10% fetal bovine serum (FBS; Invitrogen) and 1% penicillin–streptomycin solution (Invitrogen) and cultured at 37°C in a humidified atmosphere containing 5% CO2. All cells were inoculated into 96 well plates at a density of 1 × 10^4 cells per well for 24 h and then treated with II-6s (0.98 to 500 μg/ml) for 5 min or 24 h. The positive control was treated with CHX (0.98 to 500 μg/ml) at the same time. After treatment, the wells were washed with sterile PBS and fresh medium was added. 10 μl of CCK-8 solution (10 μl) was added to each well and incubated for 1.5 h. The absorbance of each well was measured at the wavelength of 450 nm against a blank which contained medium only. Cell viability was calculated according to the following formula: percent viability = (A450 of treated group − A450 of blank control)/(A450 of negative control − A450 of blank control) × 100%. The experiment was conducted in triplicates and repeated three times.

Series [1] in a line: In vitro cytotoxicity assay (CCK-8). Format: cell-based. The settings on record: mouse, RAW264.7 macrophages; RAW264.7, 5 min exposure. The method, then:
as §1

Series [2] deals with S. mutans. Nature of the series: Time-kill assay. The settings on record: at MBC. Format: cell-based, Streptococcus mutans UA159. How it is done:
(§2) The time- and dose-dependent killing capacities of II-6s were assessed by the method modified from that of Koo et al.. S. mutans was diluted to 1 × 10^7 CFU/ml in BHI broth containing test compounds or not, and incubated in 5% CO2 at 37°C. For the time-kill curve, the final concentration of II-6s and CHX was equivalent to their MBC. At 0, 0.5, 1, 2, 4, 6, 8 and 10 h, samples were serially diluted in PBS and 50 μl aliquots were spread onto BHI agar medium. For the dose-dependent killing curve, S. mutans was treated with different doses of II-6s and CHX for 5 min before diluted and spread. All plates were incubated anaerobically for 48 h followed by enumeration of CFU. The time-kill or dose-dependent killing curves were constructed by plotting the log10(CFU/ml) versus the incubation time or concentration. The experiment was performed in triplicates and repeated at least three times.

The test system of series [3] is S. mutans. Nature of the series: Dose-dependent killing assay. In kind it is cell-based, Streptococcus mutans UA159. The settings on record: equivalent doses, 5-min exposure. How it is done:
as §2

Series [4] relates to methicillin-susceptible S. aureus. Also on record: method as in PMID 30940910. The settings on record: cited from earlier work.

The structures appear in SMILES notation.

By IC50 is commonly meant the midpoint of a concentration-inhibition curve. A high value points to lower potency. For the compound `CC(C)(Cc1ccc2ccccc2c1)NC[C@H](O)CNc1cc(C(F)(F)F)cc(C(F)(F)F)c1` [II-6s, (S)-1-((3,5-bis(trifluoromethyl)phenyl)amino)-3-((2-methyl-1-(naphthalen-2-yl)propan-2-yl)amino)propan-2-ol], the “IC50 (cytotoxicity), compared with CHX” value with macrophages RAW264.7 is “higher than that of CHX”. The IC50 at 5 min in series [1] was more than 125 µg/mL. The “treatment time after which no visible colonies were observed on the plate” value in the series with S. mutans [2] is reported as 8 h. Besides, the “reduction of S. mutans” value with S. mutans [2] (within 2 h) is on record as “approximately 3 log10 CFU/ml”. In addition, the “bactericidal activity in dose-dependent killing assay” value with S. mutans [3] was “better bactericidal activities than CHX”. Moreover, the “antimicrobial activity against methicillin-susceptible S. aureus” value in series [4] is “decent antimicrobial activity”.

Source of the values: paper PMC8018465, “Antimicrobial activities of a small molecule compound II-6s against oral streptococci” (Journal of Oral Microbiology, 2021).
